Experiment in all cases: NCI tumour cell line growth inhibition, 48 h
Experiment [1] has as its system OVCAR-3.
The test system of experiment [2] is SK-MEL-5.
Experiment [3] has as its system UO-31.
Experiment [4] has as its system OVCAR-4.
Experiment [5] relates to Malme-3M.
For experiment [6], the system named is HCC 2998.
The test system of experiment [7] is SNB-19.
The subject of experiment [8] is IGROV-1.
The test system of experiment [9] is OVCAR-5.
The subject of experiment [10] is SN12C.
The test system of experiment [11] is HOP-62.
In experiment [12] the test system is HL-60.
Experiment [13] has as its system A498.
Experiment [14] deals with SR.
Experiment [15] relates to SF-295.
Experiment [16] has as its system CAKI-1.
The test system of experiment [17] is NCI-H460.
The test system of experiment [18] is TK-10.

Molecules are shown by their SMILES.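 Test compounds were applied to cells in 96-well plates for 48 hours at 5 doses. GI50 marks 50% less growth.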 Activity calls are given as the source filed them. Cut-off read from the data, not from the text of the source: active = GI50 up to about 1.1 µM and inactive = higher. Where only a bound is given, the exact number is not on record here.

`CC1=C2[C@@H](c3ccccc3)C3C=CC2(c2ccccc23)N(C(=O)Nc2cccc3ccccc23)C1=O` (stereo not given in full): the GI50 in experiment [1], in [2], in experiment [3], in experiment [4], in experiment [5] and in experiment [6] was > 100 µM (inactive) throughout. Also, the GI50 in experiment [7], in experiment [8], in experiment [9], in experiment [10], in experiment [11] and in [12] was > 100 µM (inactive) in each case. Moreover, the GI50 in experiment [13], in experiment [14], in [15] and in experiment [16] was > 100 µM (inactive) in each case.

Turning to `O=C(O)CCC(=O)Oc1ccc(O)c2c1CCCC2=O`, the GI50 in experiment [1] was > 100 µM (inactive); in [2] it was 49.8 µM (inactive); in [3] it was > 100 µM (inactive); in experiment [4] it was > 100 µM (inactive); in [5] it was > 100 µM (inactive); in experiment [6] it was > 100 µM (inactive). Also, the GI50 in experiment [7], in [17], in experiment [8], in [9], in experiment [10] and in experiment [18] was > 100 µM (inactive) throughout. Further, the GI50 in experiment [11] is > 100 µM (inactive); in experiment [12], > 100 µM (inactive); in experiment [13], > 100 µM (inactive); in experiment [14], 64 µM (inactive); in [15] it was > 100 µM (inactive).

With `NC(=O)Cn1c(=O)[nH]c(=O)c2[nH]cnc21`, the GI50 in experiment [1], in [2], in experiment [3], in experiment [5], in [6] and in experiment [7] was > 100 µM (inactive) throughout. Further, the GI50 in experiment [17], in experiment [8], in [9], in [10], in experiment [18] and in experiment [11] was > 100 µM (inactive) each time. The GI50 in experiment [12], in [13] and in [14] was > 100 µM (inactive) in each case.

Consider `O=C1NCC2=C1CCC1c3ccccc3CCN21` (stereo not given), for which the GI50 in [1], in experiment [2], in [3], in experiment [5], in [6] and in experiment [7] was > 100 µM (inactive) each time. Moreover, the GI50 in experiment [17], in [8], in experiment [9], in experiment [10], in [18] and in experiment [12] was > 100 µM (inactive) each time. The GI50 in experiment [13], in [14], in experiment [15] and in experiment [16] was > 100 µM (inactive) throughout.

Turning to `CC1(C)OCC([C@H]2CC23SCCCS3)O1` (stereo not given in full), the GI50 in experiment [2], in experiment [3], in experiment [4], in [5], in experiment [7] and in [17] was > 100 µM (inactive) in each case. The GI50 in [8], in [9], in experiment [10], in experiment [18], in experiment [11] and in experiment [12] was > 100 µM (inactive) throughout. Also, the GI50 in experiment [13], in experiment [14], in [15] and in [16] was > 100 µM (inactive) each time.

For `COc1ccc2nc(-c3ccc(O)cc3)ccc2c1`, the GI50 in [1] was > 100 µM (inactive); in [2], > 100 µM (inactive); in experiment [3], > 100 µM (inactive); in experiment [4], > 100 µM (inactive); in [5], > 100 µM (inactive); in experiment [6], 10.4 µM (inactive). Also, the GI50 in experiment [7], in experiment [17], in [8], in experiment [9], in experiment [10] and in experiment [18] was > 100 µM (inactive) each time. The GI50 in experiment [11], in experiment [12], in experiment [14] and in experiment [15] was > 100 µM (inactive) each time.

With `CC[C@@H]1OC2(C)CC(S(=O)(=O)c3ccccc3O)CC1O2` (stereo not given in full), the GI50 in [1], in [2], in experiment [3], in [4], in experiment [5] and in [6] was > 100 µM (inactive) each time. Also, the GI50 in [7], in experiment [17], in experiment [8], in experiment [9], in [10] and in [11] was > 100 µM (inactive) each time. Also, the GI50 is > 100 µM (inactive) in experiment [12], > 100 µM (inactive) in experiment [14], > 100 µM (inactive) in experiment [15] and < 0.01 µM (active) in experiment [16].

As to `C[C@]12CCC(=O)C=C1CC[C@@H]1[C@@H]2C(=O)C[C@@]2(C)[C@H]1CC[C@]2(O)C(=O)CO` [CORTISONE], the GI50 in [1], in experiment [2], in [3], in experiment [4], in experiment [5] and in experiment [6] was > 100 µM (inactive) in each case. Besides, the GI50 in [7], in experiment [17], in [8], in experiment [10], in experiment [18] and in experiment [12] was > 100 µM (inactive) each time. For the same molecule, the GI50 in experiment [13], in experiment [14], in experiment [15] and in [16] was > 100 µM (inactive) in each case.

Take `C[C@H]1CC[P+](Cc2ccccc2)(c2ccccc2)C1` (stereo not given in full): the GI50 in [1] was 41.2 µM (inactive); in experiment [2], 22.2 µM (inactive); in [3] it was > 100 µM (inactive); in experiment [4], > 100 µM (inactive); in experiment [5], 30.3 µM (inactive); in experiment [6], 67.6 µM (inactive). Besides, the GI50 is > 100 µM (inactive) in experiment [7]; > 100 µM (inactive) in experiment [17]; 64.7 µM (inactive) in experiment [8]; > 100 µM (inactive) in experiment [9]; > 100 µM (inactive) in experiment [10]; > 100 µM (inactive) in experiment [18]. Further, the GI50 was > 100 µM (inactive) in experiment [11]; 33.9 µM (inactive) in [12]; > 100 µM (inactive) in experiment [13]; 90.4 µM (inactive) in [14]; > 100 µM (inactive) in experiment [15].

(Values after ChEMBL document CHEMBL1201862, “PubChem BioAssay data set” (2004).)
